Where “and” joins values, the source holds several entries; their conditions need not be identical. Equal values may be shown once. Toxic doses and inconclusive results are not listed.

The test system of the test is BDF1 mice, P388 leukemia ip, median survival T/C. Description: NCI In Vivo Anticancer Drug Screen. Data for tumor model P388 Leukemia (intraperitoneal) in B6D2F1 (BDF1) mice. Particulars: endpoint: median survival time, higher = longer survival. In a few lines:
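Read-out is survival of treated animals expressed relative to the vehicle group, as a T/C ratio.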

Where [1] appears, read: dose: 3.12 mg/kg/injection, schedule: Q01DX009 (ip), vehicle: saline.
Setting [2] is: dose: 6.25 mg/kg/injection, schedule: Q01DX009 (ip), vehicle: saline.
The mark [3] stands for this setting: dose: 100.0 mg/kg/injection, schedule: Q01DX001 (ip), vehicle: saline sonified.
The mark [4] stands for this setting: dose: 200.0 mg/kg/injection, schedule: Q01DX001 (ip), vehicle: saline sonified.
Where [5] appears, read: dose: 50.0 mg/kg/injection, schedule: Q01DX009 (ip), vehicle: saline with Tween-80.
Where [6] appears, read: dose: 100.0 mg/kg/injection, schedule: Q01DX009 (ip), vehicle: saline with Tween-80.
The mark [7] stands for this setting: dose: 200.0 mg/kg/injection, schedule: Q01DX009 (ip), vehicle: saline with Tween-80.
The mark [8] stands for this setting: dose: 100.0 mg/kg/injection, schedule: Q01DX001 (ip), vehicle: saline with Tween-80.
[9] abbreviates: dose: 200.0 mg/kg/injection, schedule: Q01DX001 (ip), vehicle: saline with Tween-80.
The mark [10] stands for this setting: dose: 400.0 mg/kg/injection, schedule: Q01DX001 (ip), vehicle: saline with Tween-80.

As to `CC1(C)CN(Cc2ccccc2)C(C)(C)CN1`, the T/C reads like this: (dose: 0.78 mg/kg/injection, schedule: Q01DX009 (ip), vehicle: saline with Tween-80) 89 % of control; (dose: 1.56 mg/kg/injection, schedule: Q01DX009 (ip), vehicle: saline with Tween-80) 97 % of control; (dose: 3.12 mg/kg/injection, schedule: Q01DX009 (ip), vehicle: saline with Tween-80) 95 % of control; (dose: 3.12 mg/kg/injection, schedule: Q04DX003 (ip), vehicle: saline with Tween-80) 114 % of control; (dose: 6.25 mg/kg/injection, schedule: Q01DX009 (ip), vehicle: saline with Tween-80) 91 % of control; (dose: 6.25 mg/kg/injection, schedule: Q04DX003 (ip), vehicle: saline with Tween-80) 108 % of control. Also, the T/C reads like this: (dose: 12.5 mg/kg/injection, schedule: Q04DX003 (ip), vehicle: saline with Tween-80) 96 % of control; (dose: 25.0 mg/kg/injection, schedule: Q04DX003 (ip), vehicle: saline with Tween-80) 89 % of control.
On to `O=CN(O)CC(=O)O.[Ni]`, for which the T/C (dose: 1.56 mg/kg/injection, schedule: Q04DX003 (ip), vehicle: saline) was 90 % of control; the T/C (dose: 2.3 mg/kg/injection, schedule: Q01DX001 (ip), vehicle: saline) was 105 % of control; the T/C under setting [1] is 120 % of control; the T/C (dose: 3.12 mg/kg/injection, schedule: Q04DX003 (ip), vehicle: saline) is 109 % of control; the T/C under setting [2] is 115 % of control; the T/C (dose: 6.25 mg/kg/injection, schedule: Q04DX003 (ip), vehicle: saline) was 109 % of control. In addition, the T/C runs as follows: (dose: 9.2 mg/kg/injection, schedule: Q01DX001 (ip), vehicle: saline) 95 % of control; (dose: 9.2 mg/kg/injection, schedule: Q04DX003 (ip), vehicle: saline) 100 % of control; (dose: 13.0 mg/kg/injection, schedule: Q01DX001 (ip), vehicle: saline) 113 % of control; (dose: 13.0 mg/kg/injection, schedule: Q04DX003 (ip), vehicle: saline) 109 % of control; (dose: 14.0 mg/kg/injection, schedule: Q04DX003 (ip), vehicle: saline) 109 % of control; (dose: 20.0 mg/kg/injection, schedule: Q01DX001 (ip), vehicle: saline) 113 % of control. In addition, the T/C is, setting by setting: (dose: 21.0 mg/kg/injection, schedule: Q04DX003 (ip), vehicle: saline) 118 % of control; (dose: 30.0 mg/kg/injection, schedule: Q01DX001 (ip), vehicle: saline) 113 % of control; (dose: 30.0 mg/kg/injection, schedule: Q04DX003 (ip), vehicle: saline) 113 % of control.
Take `CCCCOC(=O)c1cccc(C(=O)OCCCC)c1Sc1ccccc1`: the T/C reads like this: (dose: 50.0 mg/kg/injection, schedule: Q01DX009 (ip), vehicle: other) 105 % of control; (dose: 100.0 mg/kg/injection, schedule: Q01DX009 (ip), vehicle: other) 100 % of control; (dose: 200.0 mg/kg/injection, schedule: Q01DX009 (ip), vehicle: other) 107 % of control.
Regarding `CCCCCCCCCCCCSCCCCSCCCCCCCCCCCC`, the T/C under setting [3] was 100 % of control and the T/C under setting [4] is 86 % of control.
Consider `COc1ccc(/C=C2\NC(=O)NC2=O)cc1O`, for which the T/C under setting [5] was 106 % of control, the T/C under setting [6] is 101 % of control and the T/C under setting [7] was 105 % of control.
As to `C=CN1C(=O)NC(C)(CC(C)C)C1=O` (stereo not drawn), the T/C is, setting by setting: under setting [6], 93 % of control; under setting [7], 104 % of control; (dose: 400.0 mg/kg/injection, schedule: Q01DX009 (ip), vehicle: saline with Tween-80) 104 % of control.
With `O=C(CC(O)(C(F)(F)F)C(F)(F)F)c1cccc(Cl)c1`, the T/C is 113 % of control under setting [8], 113 % of control under setting [9] and 118 % of control under setting [10].
Regarding `O=C1CN(CCc2ccccc2)CC(=O)N2C(c3ccccc3)CCCN12` (stereo not drawn), the T/C was 94 % of control (dose: 50.0 mg/kg/injection, schedule: Q01DX005 (ip), vehicle: saline with Tween-80); 97 % of control (dose: 100.0 mg/kg/injection, schedule: Q01DX005 (ip), vehicle: saline with Tween-80); 97 % of control (dose: 200.0 mg/kg/injection, schedule: Q01DX005 (ip), vehicle: saline with Tween-80).
Turning to `Cc1cccc2cc3cccc(C)[n+]3cc12`, the T/C (dose: 5.0 mg/kg/injection, schedule: Q01DX010 (ip), vehicle: saline) was 100 % of control.
For the compound `CC(O)C(O)C(O)C(O)/C=N/O` (stereo not drawn), the T/C was 92 % of control (dose: 200.0 mg/kg/injection, schedule: Q04DX003 (ip), vehicle: Klucel (hydroxypropylcellulose) (HPC)) and 88 % of control (dose: 400.0 mg/kg/injection, schedule: Q04DX003 (ip), vehicle: Klucel (hydroxypropylcellulose) (HPC)).
As to `CC1(C)N=C(N)N=C(N)N1c1ccc(OCC(=O)Nc2ccc(S(=O)(=O)F)cc2)c(Cl)c1`, the T/C by setting is: (dose: 44.0 mg/kg/injection, schedule: Q04DX003 (ip), vehicle: saline) 113 % of control; (dose: 50.0 mg/kg/injection, schedule: Q01DX009 (ip), vehicle: saline) 190 % of control; (dose: 100.0 mg/kg/injection, schedule: Q01DX008 (ip), vehicle: saline) 195 % of control; (dose: 100.0 mg/kg/injection, schedule: Q01DX009 (ip), vehicle: saline) 205 % of control; (dose: 132.0 mg/kg/injection, schedule: Q04DX003 (ip), vehicle: saline) 166 % of control and 200 % of control; (dose: 200.0 mg/kg/injection, schedule: Q01DX008 (ip), vehicle: saline) 200 % of control. Moreover, the T/C is 161 % of control and 215 % of control (dose: 200.0 mg/kg/injection, schedule: Q04DX003 (ip), vehicle: saline); 245 % of control and 152 % of control (dose: 300.0 mg/kg/injection, schedule: Q04DX003 (ip), vehicle: saline).
`CCCCCCCCCCCCCSCCCCCCCCSCCCCCCCCCCCCC`: the T/C under setting [8] is 95 % of control, the T/C under setting [9] was 90 % of control and the T/C under setting [10] is 100 % of control.
Turning to `C/C=C/C(=O)OCCC[N+](C)(C)C`, the T/C is, setting by setting: (dose: 0.09 mg/kg/injection, schedule: Q01DX009 (ip), vehicle: saline) 95 % of control; (dose: 0.19 mg/kg/injection, schedule: Q01DX009 (ip), vehicle: saline) 92 % of control; (dose: 0.39 mg/kg/injection, schedule: Q01DX009 (ip), vehicle: saline) 96 % of control and 109 % of control; (dose: 0.78 mg/kg/injection, schedule: Q01DX009 (ip), vehicle: saline) 96 % of control and 101 % of control; (dose: 1.56 mg/kg/injection, schedule: Q01DX009 (ip), vehicle: saline) 96 % of control and 111 % of control; under setting [1], 100 % of control and 105 % of control. Moreover, the T/C under setting [2] is 92 % of control.
Take `O=C1C(N2CCOCC2)=Cc2cccc3cccc1c23`: the T/C by setting is: (dose: 50.0 mg/kg/injection, schedule: Q04DX003 (ip), vehicle: saline with Tween-80) 99 % of control; under setting [6], 101 % of control; (dose: 100.0 mg/kg/injection, schedule: Q04DX003 (ip), vehicle: saline with Tween-80) 96 % of control; under setting [7], 90 % of control; (dose: 200.0 mg/kg/injection, schedule: Q04DX003 (ip), vehicle: saline with Tween-80) 88 % of control; (dose: 400.0 mg/kg/injection, schedule: Q04DX003 (ip), vehicle: saline with Tween-80) 99 % of control.
With `COC(=O)c1c(C(=O)OC)c1=[N+]=[N-]`, the T/C under setting [5] was 101 % of control, the T/C under setting [6] is 96 % of control and the T/C under setting [7] was 99 % of control.
Take `O=C(Nc1ccc2ccccc2c1)c1ccccc1`: the T/C was 95 % of control under setting [3]; 100 % of control under setting [4]; 100 % of control (dose: 400.0 mg/kg/injection, schedule: Q01DX001 (ip), vehicle: saline sonified).

These data come from PubChem BioAssay AID328 (DTP/NCI, 2004).
